Test results reported in US5118675A, “Quinoxaline phosphono-amino acids” (American Home Products Corporation, priority 1991, dated 1992).

Key:
NMDA receptor = assay: Displacement of tritiated CPP ([3H] CPP binding) in rat frontal cortex homogenates
Procedure: CPP binding at 10 μM concentrations. The IC50 calculated for these compounds is as follows: […]

NMDA-lethality = NMDA-lethality model in mice (antagonism of NMDA in vivo, survival); set-up: species or system mouse (male Swiss-albino, CD-1 strain); conditions: Mus musculus, ip, 0.5 h; test compound i.p. 30 min before NMDA 195 mg/kg i.p.; 30 min observation
Procedure: Male Swiss-albino mice (CD-1 strain, Charles River) 18-22 grams in weight, after 18 hours of food deprivation, were habituated to an observation chamber for 30 minutes. The mice were pretreated with the representative test compound followed thirty minutes later with NMDA, 195 mg/kg, i.p., which is a dose normally causing 90% mortality resulting from motor seizures including uncontrollable hind leg scratching or limbs and/or torso muscle jerking with loss of righting reflex followed by death within the 30 minute observation period after NMDA administration. From the latter, the ED50 for survival is determined.

Row | Compound | IC50 (NMDA receptor) [µM] | ED50 (NMDA-lethality) [mg/kg]
1 | NC(Cc1nc2ccccc2nc1CP(=O)(O)O)C(=O)O (racemic) [Example 1, α-Amino-3-(phosphonomethyl)-2-quinoxalinepropanoic Acid] | 0.11 | 3.72
2 | NC(Cc1nc2cc(Cl)c(Cl)cc2nc1CP(=O)(O)O)C(=O)O (stereo not drawn) [Example 7, α-Amino-6,7-dichloro-3-(phosphonomethyl)-2-quinoxalinepropanoic Acid] | 0.004 | 1.58
3 | Cc1cc2nc(CC(N)C(=O)O)c(CP(=O)(O)O)nc2cc1C (stereo not drawn) [Example 4, α-Amino-6,7-dimethyl-3-(phosphonomethyl)-2-quinoxalinepropanoic Acid] | 0.022 | –
4 | NC(Cc1nc2cc3ccccc3cc2nc1CP(=O)(O)O)C(=O)O (stereo not drawn) [Example 5, α-Amino-3-(phosphonomethyl)-2-benzo[g]quinoxalinepropanoic Acid] | 0.006 | 5.3
5 | NC(Cc1nc2cc(F)c(F)cc2nc1CP(=O)(O)O)C(=O)O (stereo not drawn) [Example 10, α-Amino-6,7-difluoro-3-(phosphonomethyl)-2-quinoxalinepropanoic Acid] | 0.166 | –
6 | COc1cc2nc(CC(N)C(=O)O)c(CP(=O)(O)O)nc2cc1OC (stereo not drawn) [Example 11, α-Amino-6,7-dimethoxy-3-(phosphonomethyl)-2-quinoxalinepropanoic Acid] | 0.832 | –
7 | D(-)-2-amino-5-phosphono-heptanoic acid [D(-)-2-amino-5-phosphonoheptanoic acid, reference compound] | 0.639 | –
8 | N[C@@H](CCC(=O)O)C(=O)O [L-glutamic acid, reference compound] | 0.064 | –
9 | NC(Cc1nc2ccccc2nc1CP(=O)(O)O)C(=O)O (single isomer, unassigned) [Laevoisomer of Example 3, (-)-α-amino-3-(phosphonomethyl)-2-quinoxalinepropanoic acid] | 0.029 | 1.52
10 | NC(Cc1nc2cc(Cl)ccc2nc1CP(=O)(O)O)C(=O)O (stereo not drawn) [Example 8, α-Amino-7-chloro-3-(phosphonomethyl)-2-quinoxalinepropanoic Acid] | 0.024 | 1.13
